Structures can show the parent of a compound that is named as a salt.
How the values were obtained:
[1] = biological target: T1, double-labeled CYP3A4 C64/C121-DY/ER (Homo sapiens, UniProt P08684, A121C/C239S/C377S/C468A/C98S/S18F); assay: Steady-state LRET titration (delayed emission); settings: Table S2; protein C64/C121-ER/DY; same ligand concentrations
Method: (§1) All absorbance and fluorescence assays (including the time-resolved fluorescence measurements) were performed at a protein concentration ≤1 µM at 25°C with continuous stirring. Absorbance spectra were recorded with an S2000 rapid scanning CCD spectrometer (Ocean Optics). Ligand binding assays were done in 100 mM Na-Hepes buffer, pH 7.4, containing 0.5 mM EDTA.
(§2) Fluorescence-based ligand binding assays were done under anaerobic conditions. Anaerobiosis was achieved using an oxygen-scavenging system consisting of protecatechuate-3,4-dioxygenase (0.5 units/ml) and 5 mM protocatechuic acid. The steady state and time-resolved phosphorescence measurements were performed with the use of a Cary Eclipse fluorescence spectrophotometer (Varian/Agilent Technologies). The excitation wavelength was set to 540 nm. Spectra were taken from 650 to 860 nm with 100 µs delay.
(§3) Quantitative interpretation of LRET results was also based on the use of PCA applied to a series of emission spectra normalized on integral intensity. […] Intensity of the donor and acceptor fluorescence obtained in this way were used in determination of the efficiency of steady-state LRET using the equation [drawing 1] (Eq.1) where I ad is emission intensity of the acceptor, I da is the residual donor emission in the presence of acceptor (I da), Φ a and Φ d are the quantum yield of the fluorescence of acceptor and the quantum yield of the phosphorescence of donor, respectively.
(§4) Distances were calculated using the equation: [drawing 3] (Eq.3) where R 0 is the Förster distance, and R is the distance between the donor and acceptor. R 0 was calculated with the use of PhotoChemCad software. In these calculations, we used the values of the orientation factor (κ^2) and the refractive index (n) of 0.667 and 1.4, respectively.
(§5) When fitting the results of titration experiments, where the changes in the monitored signal A S (fraction of the enzyme in the high-spin state, intensity or the lifetime of the donor phosphorescence at a given substrate concentration) were assumed to be proportional to [ES], this equation was complemented with the offset A 0 and the scaling factor A max to yield the following relationship: [drawing 5] (Eq.5)

[2] = biological target: T1, double-labeled CYP3A4 C64/C121-DY/ER; assay: Time-resolved LRET (phosphorescence lifetime measurements)
Method: as §1, §2
The treatment of the time-resolved decay traces was performed using a bi-exponential approximation. The efficiency of time-resolved LRET was calculated using the equation [drawing 2] (Eq.2)
In this equation τda and τd designate the average lifetime of the excited state of the donor in the presence and absence of the acceptor, respectively. These average lifetimes are determined as τ = α1τ1+α2τ2, where τ1,2 and α1,2 stay for the lifetime and the relative amplitude of each of the two exponential terms. In our calculations of the lifetime in double-labeled C64/C468, C377/C468 and C64/C121 proteins we used the lifetimes of phosphorescence measured with the respective proteins labeled with ERIA at a label:protein ratio 2∶1 as the estimates of τd.
as §4

[3] = biological target: T2, double-labeled CYP3A4 (C64/C468)-DY/ER (Homo sapiens, UniProt P08684, S18F, form not given); assay: as above
T2 sequence (P08684 13-503 S18F, form open): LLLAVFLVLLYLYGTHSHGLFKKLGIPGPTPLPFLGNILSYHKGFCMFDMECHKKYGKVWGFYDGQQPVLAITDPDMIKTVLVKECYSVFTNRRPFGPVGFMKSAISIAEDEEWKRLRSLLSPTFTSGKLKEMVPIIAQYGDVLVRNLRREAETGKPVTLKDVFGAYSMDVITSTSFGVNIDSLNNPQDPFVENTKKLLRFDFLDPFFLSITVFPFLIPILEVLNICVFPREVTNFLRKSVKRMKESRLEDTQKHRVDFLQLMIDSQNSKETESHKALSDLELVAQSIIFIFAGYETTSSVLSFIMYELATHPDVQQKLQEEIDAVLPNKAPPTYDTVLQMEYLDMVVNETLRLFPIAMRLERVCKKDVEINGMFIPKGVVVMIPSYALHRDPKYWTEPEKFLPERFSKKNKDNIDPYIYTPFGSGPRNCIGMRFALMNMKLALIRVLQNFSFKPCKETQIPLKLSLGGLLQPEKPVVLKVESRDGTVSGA
Excerpt: (§6) The excitation wavelength was set to 540 nm.

[4] = biological target: double-labeled CYP3A4 C377/C468-DY/ER (Homo sapiens, UniProt P08684, S18F, form not given); assay: as above
double-labeled CYP3A4 C377/C468-DY/ER, sequence (P08684 13-503 S18F, form open): as above
Excerpt: as §6

[5] = biological target: T3, double-labeled CYP3A4 (C64/C468)-ER/DY (Homo sapiens, UniProt P08684, S18F, form not given); assay: as above
T3 sequence (P08684 13-503 S18F, form open): as above
Excerpt: as §6

[6] = biological target: CYP3A4 (C64/C468 mutant) (Homo sapiens, UniProt P08684, form not given/S18F); assay: Ligand-induced spin shift, absorbance titration; type: binding; settings: human, purified CYP3A4(C64/C468) mutant protein, pH 7.4; read-out: K D or S 50
CYP3A4 (C64/C468 mutant), sequence (P08684 13-503 S18F, form open): as above
Method: as §1
(§7) Absorbance spectra obtained in titration experiments were analyzed with a principal component analysis (PCA) procedure complemented with least-square approximation of the principal vectors with a combination of the prototypical spectra of the CYP3A4 low-spin, high-spin and Type II-substrate-bound ferric CYP3A4 P450 states as described, [31].
as §5

[7] = biological target: CYP3A4 (C377/C468 mutant) (Homo sapiens, UniProt P08684, form not given/S18F); assay: Ligand-induced spin shift, absorbance titration; type: binding; settings: human, purified CYP3A4(C377/C468) mutant protein, pH 7.4; read-out: K D or S 50
CYP3A4 (C377/C468 mutant), sequence (P08684 13-503 S18F, form open): as above
Method: as §1, §7, §5

[8] = biological target: T2, double-labeled CYP3A4 (C64/C468)-DY/ER; assay: Steady-state LRET titration (delayed emission); type: binding
Method: as §1, §2, §3, §4, §5

[9] = biological target: T3, double-labeled CYP3A4 (C64/C468)-ER/DY; assay: Steady-state LRET titration (delayed emission); type: binding
Method: as §1, §2, §3, §4, §5

[10] = Table S1, protein (C64/C121)-ER/DY, same ligand concentrations
[11] = Table S2, protein C64/C121-ER/DY, same ligand concentrations
[12] = Table S1, (C64/C468)-DY/ER, same ligand concentrations
[13] = Table S2, C64/C468-DY/ER, same ligand concentrations
[14] = Table S1, protein (C377/C468)-ER/DY, same ligand concentrations
[15] = Table S2, protein C377/C468-ER/DY, same ligand concentrations
[16] = Table S1, (C64/C468)-ER/DY, same ligand concentrations
[17] = Table S2, C64/C468-ER/DY, same ligand concentrations

T1 sequence (P08684 with tags, fused parts or gaps S18F/C98S/A121C/C239S/C377S/C468A limits assumed): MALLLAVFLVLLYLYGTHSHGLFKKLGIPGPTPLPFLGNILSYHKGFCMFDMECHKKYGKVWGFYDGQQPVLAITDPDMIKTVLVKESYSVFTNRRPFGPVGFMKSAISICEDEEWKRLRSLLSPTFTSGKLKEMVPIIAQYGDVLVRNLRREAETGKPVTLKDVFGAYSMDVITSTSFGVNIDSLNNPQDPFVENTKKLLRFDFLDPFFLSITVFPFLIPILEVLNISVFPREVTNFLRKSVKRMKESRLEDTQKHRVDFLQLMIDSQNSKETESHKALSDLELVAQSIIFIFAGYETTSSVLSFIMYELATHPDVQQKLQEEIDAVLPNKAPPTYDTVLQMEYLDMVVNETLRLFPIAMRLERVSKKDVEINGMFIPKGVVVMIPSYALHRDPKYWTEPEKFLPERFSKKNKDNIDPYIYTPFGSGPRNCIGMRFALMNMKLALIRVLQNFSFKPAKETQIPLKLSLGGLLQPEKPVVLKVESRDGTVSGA

CC(C)C[C@H]1C(=O)N2CCC[C@H]2[C@]2(O)O[C@](NC(=O)[C@@H]3C=C4c5cccc6[nH]c(Br)c(c56)C[C@H]4N(C)C3)(C(C)C)C(=O)N12 [Bromocriptine, Bromocriptine mesylate]
R (interprobe distance with ligand), steady-state measurements [1]: 43.6 ± 0.9 Å
ΔR, steady-state measurements [1]: 1.0 ± 0.9 Å
increase in the interprobe distance ([2]; C64/C121-DY/ER, stated for both steady-state and lifetime experiments): 1.3 Å
τ1 (phosphorescence decay time with ligand) ([2]; Table S1, protein (C64/C121)-ER/DY, 1-PB 40 µM, ANF 100 µM, BCT 2.5 µM, cholesterol 100 µM, testosterone 100 µM, bi-exponential fit): 75 ± 13 µs
F1 (fraction of first exponential) [2, 10]: 49 ± 5%
τ2 (phosphorescence decay time with ligand) [2, 10]: 242 ± 15 µs
τav (average phosphorescence lifetime with ligand) [2, 10]: 159 ± 2 µs
R (interprobe distance with ligand), lifetime measurements [2, 11]: 36.4 ± 0.1 Å
ΔR, lifetime measurements [2, 11]: 1.3 ± 0.1 Å
ΔR (change in interprobe distance), lifetime measurements ([3]; (C64/C468)-DY/ER, nearly-saturating ligand: ANF 100 µM, bromocriptine 2.5 µM, cholesterol 50 µM, testosterone 100 µM): 0.3±1.0 Å
τ1 (phosphorescence decay time with ligand) ([3]; Table S1, (C64/C468)-DY/ER, 1-PB 40 µM, ANF 100 µM, BCT 2.5 µM, cholesterol 100 µM, testosterone 100 µM, bi-exponential fit): 55 ± 9 µs
F1 (fraction of first exponential) [3, 12]: 44 ± 5%
τ2 (phosphorescence decay time with ligand) [3, 12]: 209 ± 20 µs
τav (average phosphorescence lifetime with ligand) [3, 12]: 141 ± 7 µs
R (interprobe distance with ligand), lifetime measurements [3, 13]: 37.1 ± 0.8 Å
ΔR, lifetime measurements [3, 13]: 0.3 ± 0.8 Å
τ1 (phosphorescence decay time with ligand) ([4]; Table S1, protein (C377/C468)-ER/DY, 1-PB 40 µM, ANF 100 µM, BCT 2.5 µM, cholesterol 100 µM, testosterone 100 µM, bi-exponential fit): 25 ± 9 µs
F1 (fraction of first exponential) [4, 14]: 20 ± 4%
τ2 (phosphorescence decay time with ligand) [4, 14]: 129 ± 6 µs
τav (average phosphorescence lifetime with ligand) [4, 14]: 108 ± 3 µs
R (interprobe distance with ligand), lifetime measurements [4, 15]: 36.8± 0.4 Å
ΔR, lifetime measurements [4, 15]: 0.0 ± 0.4 Å
ΔR (change in interprobe distance), lifetime measurements ([5]; (C64/C468)-ER/DY, nearly-saturating ligand: ANF 100 µM, bromocriptine 2.5 µM, cholesterol 50 µM, testosterone 100 µM): −0.3±0.6 Å
τ1 (phosphorescence decay time with ligand) ([5]; Table S1, (C64/C468)-ER/DY, 1-PB 40 µM, ANF 100 µM, BCT 2.5 µM, cholesterol 100 µM, testosterone 100 µM, bi-exponential fit): 39 ± 12 µs
F1 (fraction of first exponential) [5, 16]: 28 ± 5%
τ2 (phosphorescence decay time with ligand) [5, 16]: 168 ± 2 µs
τav (average phosphorescence lifetime with ligand) [5, 16]: 131 ± 5 µs
R (interprobe distance with ligand), lifetime measurements [5, 17]: 36.0 ± 0.5 Å
ΔR, lifetime measurements [5, 17]: -0.3 ± 0.5 Å
Kd [6]: 340 ± 100 nM
Kd [7]: 960 ± 200 nM
ΔR (change in interprobe distance), steady-state fluorescence ([8]; (C64/C468)-DY/ER): 0.2±0.2 Å
R (interprobe distance with ligand), steady-state measurements [8, 13]: 35.1 ± 0 Å
ΔR, steady-state measurements [8, 13]: 0.2 ± 0.2 Å
ΔR (change in interprobe distance), steady-state fluorescence ([9]; (C64/C468)-ER/DY): 0.5±1.6 Å
R (interprobe distance with ligand), steady-state measurements [9, 17]: 39.6 ± 1.6 Å
ΔR, steady-state measurements [9, 17]: 0.5 ± 1.6 Å

— article PMC3871636 (PLoS ONE, 2013)
